“Also recorded” adds a separate entry of the source.
Experiments:
[1] = system: rats with unilateral T13/L1 dorsal root avulsion; assay: von Frey test after unilateral T13/L1 dorsal root avulsion, daily s.c. AV411 (Example 5); format: in vivo, rat
Experimental: The dorsal spinal cord was exposed by laminectomy at the T13/L1 spinal level. The T13 and L1 dorsal roots were each isolated, clamped at the dorsal root entry zone (DREZ) and briskly pulled out of the spinal cord as described above. AV411 was administered to animals avulsed at the T13 and L1 dorsal root entry zones. The compound AV411 was administered to animals subject to the T13 and L1 hind paws. […] The reversal begins after 5-6 injections and continues to reverse behavior until day 33. The contralateral paw began to resolve at day 28 and the ipsilateral paw was still sensitive at day 33. […] Response thresholds on the von Frey test were recorded prior to and across a timecourse after avulsion surgery. Beginning on Day 12 post-surgery, rats (n=4/group) received once daily s.c. injections of either the glial activation inhibitor AV411/Ibudilast (Sigma; 5-mg/kg or 10-mg/kg) or equivolume vehicle (corn oil; 0.5-ml/kg). Daily drug treatment and intermittent behavioral testing continued through 33 days after surgery.

[2] = system: rats having DREZs avulsed at T13/L1; assay: von Frey allodynia test in T13/L1 DREZ avulsion rat model, intrathecal ibudilast (Example 2); format: in vivo; conditions: intrathecally daily in corn oil carrier; unilateral (FIG. 2) or bilateral (FIG. 3) DREZ avulsion; vs sham controls receiving corn oil
Experimental: Rats were anesthetized using isoflurane. Under aseptic condition, the skin was incised in the midline along the posterior thoracolumbar region. The paravertebral muscles were retracted laterally to expose the posterior aspect of the spinal laminae. Laminectomies were performed and the dura mater then incised along the midline to expose the dorsal rootlets 10 of T13 and L1. The dorsal rootlets of T13 and L1 were then avulsed out of the spinal cord 15 on the left side using micronstrumentation 5 (see FIG. 4B). A visual defect 25 in pia and dorsal cord where the rootlets 10 were avulsed can be seen in FIG. 4B. The grey matter 30 of the spinal cord 15 is also shown. Hemostasis was obtained and a layer of gelfoam placed over the dura. The wound was closed in layers. Perioperative antibiotics were administered in prophylaxis against infection. Subject rats were tested for allodynia of the hindpaws with the von Frey hair test, beginning day one post surgery and continuing daily over the subsequent four weeks. Rat animal model was generated similar to above. In one experiment, DREZ avulsion was unilateral (FIG. 2). In one experiment, DREZ avulsion was bilateral (FIG. 3). Ibudilast was delivered intrathecally daily in a corn oil carrier, with sham controls receiving only the corn oil.

## CC(C)C(=O)c1c(C(C)C)nn2ccccc12 [AV411, 2-methyl-1-(2-propan-2-ylpyrazolo[1,5-a]pyridin-3-yl)propan-1-one]
[1]; allodynia reversal, daily s.c.
  difference between the 5 mg and 10 mg dose: not differences
[1]; days after surgery, daily s.c. treatment through day 33
  reversal of behavior continues until: 33 days
[1]; once daily s.c. 5-mg/kg or 10-mg/kg from Day 12 post-surgery through day 33, vs corn oil vehicle
  effect on allodynia induced by avulsion (von Frey response thresholds): reversed allodynia; also recorded: reverses bilateral allodynia
[1]; unilateral T13/L1 dorsal root avulsion, lasting upwards of 1.5 months
  effect of administering AV411 on hind paw mechanical allodynia as printed: induces bilateral mechanical allodynia
[2]
  effect on allodynia in the model: decreases allodynia

Reference: patent US9452226B2, “Rodent model of central neuropathic pain caused by dorsal root entry zone avulsion at T13” (priority 2008, dated 2016)
